From ChEMBL document CHEMBL1201862, “PubChem BioAssay data set” (2004) come the findings set out here.

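Cultured in 96-well plates, cells were exposed to test compound for 48 hours across five concentrations. GI50 is the concentration that inhibits growth by half.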 Activity calls are given as the source filed them. Rule as the data show it: active = GI50 up to about 1.1 µM and inactive = higher. A value given as a limit tells only on which side of the number the result lay.

Test systems include SW-620; RXF 393; COLO 205; HL-60; A549; UO-31; UACC-257; NCI-H23; M14; A498; RPMI-8226; NCI-H522; OVCAR-4; SK-MEL-28; EKVX; HCC 2998; HOP-62; HOP-92.
Assay in all cases: inhibition of tumour cell growth, NCI panel, 48 h

As to `COc1cc(O)c2c(c1O)C(=O)c1cc(C)ncc1C2=O`, the GI50 in the experiment on SW-620 was 20.2 µM (inactive); in the experiment on RXF 393, 18.5 µM (inactive); in the experiment on COLO 205 it was 20.3 µM (inactive); in the experiment with HL-60, 17.7 µM (inactive); in the experiment on A549, 17 µM (inactive); in the experiment on UO-31, 14.3 µM (inactive). The GI50 is 15 µM (inactive) in the experiment with UACC-257; 12.4 µM (inactive) in the experiment with NCI-H23; 24.8 µM (inactive) with M14; > 50 µM (inactive) in the experiment with A498; 22.9 µM (inactive) in the experiment on RPMI-8226; 27 µM (inactive) with NCI-H522. The GI50 with OVCAR-4 is 35.4 µM (inactive); in the experiment on SK-MEL-28 it was 26.5 µM (inactive); with EKVX, 40.5 µM (inactive); with HCC 2998, 22.5 µM (inactive); with HOP-62, 28.8 µM (inactive).

For the compound `O=C(O)C1OC(Oc2cc(O)c3c(=O)cc(-c4ccc(O)cc4)oc3c2)C(O)C(O)C1O` (stereo not drawn), the GI50 in the experiment on SW-620, in the experiment on COLO 205, with HL-60, in the experiment with A549, with UO-31 and in the experiment on UACC-257 was > 100 µM (inactive) each time. Further, the GI50 was < 0.01 µM (active) in the experiment with HOP-92; > 100 µM (inactive) in the experiment with NCI-H23; > 100 µM (inactive) in the experiment on M14; > 100 µM (inactive) with NCI-H522; > 100 µM (inactive) in the experiment on OVCAR-4; > 100 µM (inactive) in the experiment with SK-MEL-28. Further, the GI50 in the experiment on EKVX, with HCC 2998 and in the experiment with HOP-62 was > 100 µM (inactive) each time.

Take `O=c1cc(-c2ccccc2)[nH]c2cc(Cl)cc(Cl)c12`: the GI50 in the experiment on SW-620 was > 100 µM (inactive); in the experiment on RXF 393, 15.2 µM (inactive); in the experiment on COLO 205, > 100 µM (inactive); in the experiment on HL-60, > 100 µM (inactive); in the experiment with A549, 53.3 µM (inactive); in the experiment with UO-31, 84.7 µM (inactive). Also, the GI50 in the experiment with UACC-257 is > 100 µM (inactive); with HOP-92 it was 25.5 µM (inactive); in the experiment on NCI-H23 it was 57.7 µM (inactive); in the experiment with M14, > 100 µM (inactive); in the experiment with RPMI-8226, > 100 µM (inactive); in the experiment on NCI-H522, 12.1 µM (inactive). Also, the GI50 is 20.5 µM (inactive) in the experiment with OVCAR-4, > 100 µM (inactive) in the experiment on SK-MEL-28 and 25.8 µM (inactive) with HOP-62.

For `CN(C)CC(/C(Cc1ccccc1)=N\NC(=S)NN)c1ccccc1` (stereo not drawn), the GI50 with SW-620, in the experiment with RXF 393, in the experiment with COLO 205, in the experiment on HL-60, in the experiment on A549 and in the experiment on UO-31 was > 100 µM (inactive) each time. The GI50 in the experiment with UACC-257, in the experiment with HOP-92, with NCI-H23, in the experiment on M14, in the experiment on RPMI-8226 and in the experiment on NCI-H522 was > 100 µM (inactive) in each case. The GI50 in the experiment with OVCAR-4, in the experiment with SK-MEL-28, in the experiment on HCC 2998 and with HOP-62 was > 100 µM (inactive) in each case.

Regarding `O=C1C2=C(c3ccccc31)C(c1ccccc1)NC(S)=N2` (stereo not drawn), the GI50 in the experiment with SW-620 is 31 µM (inactive); in the experiment on COLO 205, > 100 µM (inactive); in the experiment with HL-60, 17.9 µM (inactive); with A549, 45.9 µM (inactive); in the experiment on UO-31 it was > 100 µM (inactive); in the experiment on UACC-257 it was > 100 µM (inactive). Besides, the GI50 with HOP-92 was 14.8 µM (inactive); in the experiment on NCI-H23, > 100 µM (inactive); with M14, 55.1 µM (inactive); in the experiment on A498, > 100 µM (inactive); with RPMI-8226, 40.6 µM (inactive); in the experiment on NCI-H522 it was 33.7 µM (inactive). The GI50 was 26.1 µM (inactive) with OVCAR-4; 49.1 µM (inactive) in the experiment on SK-MEL-28; > 100 µM (inactive) in the experiment on EKVX; > 100 µM (inactive) with HCC 2998; > 100 µM (inactive) with HOP-62.

As for `C/C=C/C=C/C=C/C=C/C(=O)O`, the GI50 in the experiment with SW-620, in the experiment on RXF 393, in the experiment on COLO 205, with HL-60, in the experiment with A549 and in the experiment on UO-31 was > 100 µM (inactive) each time. Further, the GI50 in the experiment on UACC-257, in the experiment on NCI-H23, with M14, in the experiment with A498, in the experiment with RPMI-8226 and in the experiment on NCI-H522 was > 100 µM (inactive) in each case. Besides, the GI50 in the experiment on OVCAR-4, in the experiment with SK-MEL-28, in the experiment with EKVX, in the experiment with HCC 2998 and in the experiment with HOP-62 was > 100 µM (inactive) in each case.

On to `O=C1CCC2(c3ccccc3)OCC([C@@H](O)c3ccccc3)N12` (stereo partly drawn), for which the GI50 in the experiment with SW-620, with RXF 393, with COLO 205, in the experiment with A549, with UACC-257 and in the experiment with HOP-92 was > 100 µM (inactive) throughout. Besides, the GI50 with NCI-H23, with A498, with RPMI-8226, in the experiment with OVCAR-4, in the experiment on SK-MEL-28 and in the experiment with EKVX was > 100 µM (inactive) each time. For the same compound, the GI50 in the experiment with HOP-62 is > 100 µM (inactive).

Turning to `Clc1ccc2[nH]c(CCSCCc3nc4ccc(Cl)cc4[nH]3)nc2c1`, the GI50 in the experiment with SW-620 was 14 µM (inactive); in the experiment on RXF 393 it was 17.5 µM (inactive); in the experiment on COLO 205 it was 15.4 µM (inactive); with HL-60, 0.491 µM (active); with A549, 10 µM (inactive); in the experiment with UO-31 it was 11.4 µM (inactive). For the same compound, the GI50 with UACC-257 is 12.7 µM (inactive); with HOP-92 it was 12.7 µM (inactive); in the experiment with NCI-H23, 13.6 µM (inactive); with M14 it was 13 µM (inactive); in the experiment on RPMI-8226, 2.34 µM (inactive); with NCI-H522, 12.2 µM (inactive). In addition, the GI50 with OVCAR-4 is 14.2 µM (inactive); with EKVX, 16.9 µM (inactive); in the experiment on HCC 2998 it was 15.1 µM (inactive); with HOP-62, 15.2 µM (inactive).

As to `COC(=O)C1CC(C(=O)OC)c2nc3cc(C)c(C)cc3nc21` (stereo not drawn), the GI50 in the experiment with SW-620, with COLO 205, in the experiment with HL-60, in the experiment on A549, in the experiment on UO-31 and in the experiment with UACC-257 was > 100 µM (inactive) in each case. Moreover, the GI50 in the experiment with HOP-92, in the experiment with NCI-H23, with M14, with A498, in the experiment with RPMI-8226 and in the experiment with NCI-H522 was > 100 µM (inactive) each time. In addition, the GI50 in the experiment on OVCAR-4, with SK-MEL-28, in the experiment with EKVX, in the experiment on HCC 2998 and with HOP-62 was > 100 µM (inactive) in each case.
